Values belong to the compound of their own block, whether it stands above or below them.
Tests used:
HT-29 [1] = assay: Inhibition of camptothecin induced DNA damage in human HT-29 cells assessed as G2 checkpoint abrogation measured after 20 hrs presence of nocodazole by pHH3 staining based analysis
HT-29 [2] = assay: Induction of cell cycle arrest in human HT-29 cells incubated for 20 hrs by phH3 staining based analysis
SW-620 [3] = assay: Growth inhibition of human SW620 cells expressing p53 mutant assessed as reduction in cell growth incubated for 48 hrs in presence of gemcitabine; type: functional
MDA-MB-231 [4] = assay: Growth inhibition of human MDA-MB-231 cells expressing p53 mutant assessed as reduction in cell growth incubated for 48 hrs in presence of topotecan; type: functional
HCT-116 [5] = assay: Induction of G2 check point abrogation in human HCT-116 cells assessed as accumulation of cells at G1 phase incubated for 30 hrs in presence of topotecan by fluorescence-activated cell sorting analysis (reference value: 68.52%); type: functional
HCT-116 [6] = assay: Induction of G2 check point abrogation in human HCT-116 cells assessed as accumulation of cells at G2 phase incubated for 30 hrs in presence of topotecan by fluorescence-activated cell sorting analysis (reference value: 9.45%); type: functional
NCI-H460 [7] = assay: Antitumor activity against human NCI-H460 cells expressing DNp53 mutant xenografted in NCr athymic mouse model assessed as reduction in tumor volume at 25 mg/kg measured after 10 to 45 days in presence of gemcitabine by caliper method relative to control; type: functional; design: scale not given: the % may be the effect or the level left; settings: time 10-45 day
NCI-H460 [8] = assay: Antitumor activity against human NCI-H460 cells expressing DNp53 mutant xenografted in NCr athymic mouse model assessed as log cell kill 25 mg/kg measured after 10 to 45 days in presence of gemcitabine; type: functional; settings: time 10-45 day
NCI-H460 [9] = assay: Antitumor activity against human NCI-H460 cells expressing DNp53 mutant xenografted in NCr athymic mouse model assessed as T/C ratio at 25 mg/kg measured after 10 to 45 days in presence of gemcitabine by caliper method relative to control; type: functional; settings: time 10-45 day
[10] = Toxicity in NCr athymic mouse assessed as body weight loss at 25 mg/kg measured after 10 to 45 days in presence of gemcitabine relative to control; type: organism-based; settings: in vivo, time 10-45 day
SW-620 [11] = assay: Antitumor activity against human SW620 cells xenografted in NCr athymic mouse model assessed as reduction in tumor volume at 12.5 mg/kg measured from 30 to 55 days in presence of gemcitabine by caliper method relative to control; type: functional; design: scale not given: the % may be the effect or the level left; settings: time 30-55 day
SW-620 [12] = assay: Antitumor activity against human SW620 cells xenografted in NCr athymic mouse model assessed as reduction in tumor volume at 25 mg/kg measured from 30 to 55 days in presence of gemcitabine by caliper method relative to control; type: functional; design: scale not given: the % may be the effect or the level left; settings: time 30-55 day
[13] = Toxicity in NCr athymic mouse xenografted with human SW620 cells assessed as effect on body weight loss at 12.5 to 25 mg/kg measured after 30 to 55 days in presence of gemcitabine; type: organism-based, SW-620; settings: in vivo, dose lower 12.5 mg/kg, time lower 30 day, dose upper 25 mg/kg, time upper 55 day
NCI-H460 [14] = assay: Antitumor activity against human NCI-H460 cells expressing DNp53 mutant xenografted in rat model assessed as T/C ratio at 10 mg/kg measured after 10 to 30 days post tumor implantation in presence of gemcitabine by caliper method relative to control; type: functional; settings: time 10-30 day
NCI-H460 [15] = assay: Antitumor activity against human NCI-H460 cells expressing DNp53 mutant xenografted in rat model assessed as T/C ratio at 20 mg/kg measured after 10 to 30 days post tumor implantation in presence of gemcitabine by caliper method relative to control; type: functional; settings: time 10-30 day
[16] = Toxicity in rat at low dose measured after 10 to 30 days post tumor implantation; settings: in vivo, time 10-30 day
[17] = Toxicity in rat assessed as effect on body weight loss at high dose measured after 10 to 30 days post tumor implantation; settings: in vivo, time 10-30 day
[18] = Toxicity in rnu rat assessed as appearance of skin rashes at 10 to 20 mg/kg, iv measured after 10 to 30 days post tumor implantation; type: organism-based; settings: in vivo, dose lower 10 mg/kg, time lower 10 day, dose upper 20 mg/kg, time upper 30 day
SW-620 [19] = assay: Antitumor activity against human SW620 cells xenografted in athymic mouse model assessed as T/C ratio at 25 mg/kg measured after 17 to 94 days post tumor implantation by caliper method relative to control; type: functional; settings: time 17-94 day
SW-620 [20] = assay: Antitumor activity against human SW620 cells xenografted in athymic mouse model assessed as T/C ratio at 25 mg/kg measured after 17 to 94 days post tumor implantation in presence of 25 mg/kg of irinotecan by caliper method relative to control; type: functional; settings: time 17-94 day
SW-620 [21] = assay: Antitumor activity against human SW620 cells xenografted in athymic mouse model assessed as T/C ratio at 25 mg/kg measured after 17 to 94 days post tumor implantation in presence of 50 mg/kg of irinotecan by caliper method relative to control; type: functional; settings: time 17-94 day
SW-620 [22] = assay: Antitumor activity against human SW620 cells xenografted in athymic mouse model assessed as inhibition of tumor volume at 25 mg/kg measured after 17 to 94 days post tumor implantation by caliper method relative to control; type: functional; design: scale not given: the % may be the effect or the level left; settings: time 17-94 day
SW-620 [23] = assay: Antitumor activity against human SW620 cells xenografted in athymic mouse model assessed as inhibition of tumor volume at 25 mg/kg measured after 17 to 94 days post tumor implantation in presence of 25 mg/kg of irinotecan by caliper method relative to control; type: functional; design: scale not given: the % may be the effect or the level left; settings: time 17-94 day
SW-620 [24] = assay: Antitumor activity against human SW620 cells xenografted in athymic mouse model assessed as inhibition of tumor volume at 25 mg/kg measured after 17 to 94 days post tumor implantation in presence of 50 mg/kg of irinotecan by caliper method relative to control; type: functional; design: scale not given: the % may be the effect or the level left; settings: time 17-94 day
[25] = Toxicity in athymic mouse assessed as maximum weight loss at 25 mg/kg measured after 17 to 94 days post tumor implantation; type: organism-based; settings: in vivo, time 17-94 day
[26] = Toxicity in athymic mouse assessed as maximum weight loss at 25 mg/kg measured after 17 to 94 days post tumor implantation in presence of 25 mg/kg of irinotecan; type: organism-based; settings: in vivo, time 17-94 day
[27] = Toxicity in athymic mouse assessed as maximum weight loss at 25 mg/kg measured after 17 to 94 days post tumor implantation in presence of 50 mg/kg of irinotecan; type: organism-based; settings: in vivo, time 17-94 day
[28] = Toxicity in rnu rat assessed as appearance of skin rashes at 10 mg/kg measured after 10 to 30 days; type: organism-based; settings: in vivo, time 10-30 day
[29] = Toxicity in rnu rat assessed as appearance of hemorrhage at 10 mg/kg measured after 10 to 30 days; type: organism-based; settings: in vivo, time 10-30 day
SW-620 [30] = assay: Growth inhibition of human SW620 cells expressing p53 mutant assessed as reduction in cell growth incubated for 48 hrs; type: functional
SW-620 [31] = assay: Antitumor activity against human SW620 cells xenografted in athymic mouse model assessed as T/C ratio at 50 mg/kg measured after 17 to 94 days post tumor implantation by caliper method relative to control; type: functional; settings: time 17-94 day
[32] = Toxicity in athymic mouse assessed as maximum weight loss at 50 mg/kg measured after 17 to 94 days post tumor implantation; type: organism-based; settings: in vivo, time 17-94 day
HCT-116 [33] = assay: Induction of G2 check point abrogation in human HCT-116 cells assessed as accumulation of cells at G1 phase incubated for 30 hrs by fluorescence-activated cell sorting analysis (reference value: 68.52%); type: functional
HCT-116 [34] = assay: Induction of G2 check point abrogation in human HCT-116 cells assessed as accumulation of cells at G2 phase incubated for 30 hrs by fluorescence-activated cell sorting analysis (reference value: 9.45%); type: functional
MDA-MB-231 [35] = assay: cells; settings: Homo sapiens, MDA-MB-231, 48 h

Structure (SMILES): NC(=O)Nc1cc(-c2cccc(F)c2)sc1C(=O)N[C@H]1CCCNC1 [AZD-7762]
- EC50 (HT-29 [1]): 0.01 µM
- EC50 (HT-29 [2]): 0.62 µM
- GI50 (SW-620 [3]): 0.00108 µM
- TGI (SW-620 [3]; read-out: GI100): 0.0015 µM
- GI50 (MDA-MB-231 [4]): 0.15 µM
- Activity (HCT-116 [5]): 52.86%
- Activity (HCT-116 [6]): 33.02%
- Activity (NCI-H460 [7]): 76%
- LCK (NCI-H460 [8]): 0.9
- T/C (NCI-H460 [9]): 26%
- Activity [10]: 7%
- Activity (SW-620 [11]): 73%
- Activity (SW-620 [12]): 77%
- Activity [13]: Non-Toxic
- T/C (NCI-H460 [14]): 48%
- T/C (NCI-H460 [15]): 32%
- Activity [16]: Non-Toxic
- Activity [17]: Toxic
- Activity [18]: Non-Toxic
- T/C (SW-620 [19]): 56%
- T/C (SW-620 [20]): -66%
- T/C (SW-620 [21]): -67%
- Activity (SW-620 [22]): 38%
- Activity (SW-620 [23]): 116%
- Activity (SW-620 [24]): 116%
- Activity [25]: 0%
- Activity [26]: 0%
- Activity [27]: 0%

- GI50 (SW-620 [30]): 0.0241 µM
Structure (SMILES): Nc1ccn([C@@H]2O[C@H](CO)[C@@H](O)C2(F)F)c(=O)n1 [GEMCITABINE]
- Activity [28]: Toxic
- Activity [29]: Toxic
- TGI (SW-620 [30]; read-out: GI100): > 0.1 µM

Structure (SMILES): CCc1c2c(nc3ccc(OC(=O)N4CCC(N5CCCCC5)CC4)cc13)-c1cc3c(c(=O)n1C2)COC(=O)[C@]3(O)CC [IRINOTECAN]
- T/C (SW-620 [19]): 9%
- T/C (SW-620 [31]): 1%
- Activity [25]: 0%
- Activity [32]: -1%

- GI50 (MDA-MB-231 [35]): 2.25 µM
Structure (SMILES): CC[C@@]1(O)C(=O)OCc2c1cc1n(c2=O)Cc2cc3c(CN(C)C)c(O)ccc3nc2-1 [TOPOTECAN]
- Activity (HCT-116 [33]): 17.06%
- Activity (HCT-116 [34]): 75.85%

Source: ChEMBL document CHEMBL5678797, “AZD7762, a novel checkpoint kinase inhibitor, drives checkpoint abrogation and potentiates DNA-targeted therapies” (Mol Cancer Ther, 2008)
